“And” between values parts separate entries of the source, which are not always exact repeats. Equal values may be shown once. Toxic doses and inconclusive results are not listed.
System: CD2F1 mice, L1210 leukemia ip, survival T/C
Assay: NCI In Vivo Anticancer Drug Screen. Data for tumor model L1210 Leukemia (intraperitoneal) in CD2F1 (CDF1) mice
Settings: higher = longer survival
Summary of the method: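 Vehicle-treated tumor-bearing mice served as controls (C) for compound-treated mice (T). Reported figure is T divided by C.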

[1] = endpoint: median survival time, dose: 6.25 mg/kg/injection, schedule: Q04DX003 (ip), vehicle: saline
[2] = endpoint: median survival time, dose: 12.5 mg/kg/injection, schedule: Q04DX003 (ip), vehicle: saline
[3] = endpoint: median survival time, dose: 25.0 mg/kg/injection, schedule: Q04DX003 (ip), vehicle: saline
[4] = endpoint: mean survival time, dose: 100.0 mg/kg/injection, schedule: Q04DX003 (ip), vehicle: saline with Tween-80
[5] = endpoint: mean survival time, dose: 200.0 mg/kg/injection, schedule: Q04DX003 (ip), vehicle: saline with Tween-80
[6] = endpoint: mean survival time, dose: 400.0 mg/kg/injection, schedule: Q04DX003 (ip), vehicle: saline with Tween-80
[7] = endpoint: mean survival time, dose: 100.0 mg/kg/injection, schedule: Q01DX009 (ip), vehicle: saline with Tween-80
[8] = endpoint: mean survival time, dose: 200.0 mg/kg/injection, schedule: Q01DX009 (ip), vehicle: saline with Tween-80
[9] = endpoint: mean survival time, dose: 400.0 mg/kg/injection, schedule: Q01DX009 (ip), vehicle: saline with Tween-80

O=CC(O)C(O)C(O)C(O)C(=O)O.[NH-]C1CCCCC1[NH-].[Pt+2] (configuration not stated)
T/C (endpoint: mean survival time, dose: 0.78 mg/kg/injection, schedule: Q01DX005 (ip), vehicle: saline): 156 % of control | T/C (endpoint: mean survival time, dose: 1.56 mg/kg/injection, schedule: Q01DX005 (ip), vehicle: saline): 203 % of control | T/C (endpoint: mean survival time, dose: 1.56 mg/kg/injection, schedule: Q01DX009 (ip), vehicle: saline): 160 % of control | T/C (endpoint: mean survival time, dose: 3.12 mg/kg/injection, schedule: Q01DX005 (ip), vehicle: saline): 266 % of control | T/C (endpoint: mean survival time, dose: 3.12 mg/kg/injection, schedule: Q04DX003 (ip), vehicle: saline): 150 % of control | T/C (endpoint: mean survival time, dose: 3.13 mg/kg/injection, schedule: Q01DX009 (ip), vehicle: saline): 200 % of control | T/C (endpoint: mean survival time, dose: 6.25 mg/kg/injection, schedule: Q01DX005 (ip), vehicle: saline): 300 % of control | T/C (endpoint: mean survival time, dose: 6.25 mg/kg/injection, schedule: Q01DX009 (ip), vehicle: saline): 167 % of control | T/C (endpoint: mean survival time, dose: 6.25 mg/kg/injection, schedule: Q04DX003 (ip), vehicle: saline): 280 % of control | T/C (endpoint: mean survival time, dose: 12.5 mg/kg/injection, schedule: Q01DX005 (ip), vehicle: saline): 103 % of control | T/C (endpoint: mean survival time, dose: 12.5 mg/kg/injection, schedule: Q04DX003 (ip), vehicle: saline): 301 % of control | T/C (endpoint: mean survival time, dose: 25.0 mg/kg/injection, schedule: Q04DX003 (ip), vehicle: saline): 231 % of control and 259 % of control | T/C (endpoint: mean survival time, dose: 50.0 mg/kg/injection, schedule: Q04DX003 (ip), vehicle: saline): 108 % of control | T/C (endpoint: median survival time, dose: 1.02 mg/kg/injection, schedule: Q01DX009 (ip), vehicle: saline): 160 % of control and 170 % of control | T/C (endpoint: median survival time, dose: 1.37 mg/kg/injection, schedule: Q01DX009 (ip), vehicle: saline): 170 % of control and 180 % of control | T/C (endpoint: median survival time, dose: 1.56 mg/kg/injection, schedule: Q01DX009 (ip), vehicle: saline): 236 % of control | T/C (endpoint: median survival time, dose: 2.09 mg/kg/injection, schedule: Q01DX009 (ip), vehicle: saline): 189 % of control and 714 % of control | T/C (endpoint: median survival time, dose: 3.12 mg/kg/injection, schedule: Q01DX009 (ip), vehicle: saline): 188 % of control and 253 % of control and 261 % of control | T/C (endpoint: median survival time, dose: 6.25 mg/kg/injection, schedule: Q01DX009 (ip), vehicle: saline): 119 % of control | T/C [1]: 101 % of control | T/C (endpoint: median survival time, dose: 12.5 mg/kg/injection, schedule: Q01DX009 (ip), vehicle: saline): 90 % of control | T/C [2]: 100 % of control | T/C (endpoint: median survival time, dose: 12.5 mg/kg/injection, schedule: Q04DX003 (iv), vehicle: saline): 123 % of control | T/C [3]: 103 % of control | T/C (endpoint: median survival time, dose: 50.0 mg/kg/injection, schedule: Q04DX003 (iv), vehicle: saline): 365 % of control | T/C (endpoint: median survival time, dose: 100.0 mg/kg/injection, schedule: Q04DX003 (ip), vehicle: saline): 113 % of control

CC(=O)NC1C(OC(C)=O)OC(COC(C)=O)C(OC(C)=O)C1OC(C)=O (configuration not stated)
T/C (endpoint: mean survival time, dose: 50.0 mg/kg/injection, schedule: Q01DX001 (ip), vehicle: saline with Tween-80): 101 % of control | T/C (endpoint: mean survival time, dose: 100.0 mg/kg/injection, schedule: Q01DX001 (ip), vehicle: saline with Tween-80): 95 % of control | T/C (endpoint: mean survival time, dose: 200.0 mg/kg/injection, schedule: Q01DX001 (ip), vehicle: saline with Tween-80): 98 % of control

CCOC(OCC)n1ncnc1NC(=S)NCc1ccccc1
T/C (endpoint: mean survival time, dose: 12.5 mg/kg/injection, schedule: Q01DX001 (ip), vehicle: carboxymethylcellulose (CMC)): 100 % of control | T/C (endpoint: mean survival time, dose: 25.0 mg/kg/injection, schedule: Q01DX001 (ip), vehicle: carboxymethylcellulose (CMC)): 95 % of control | T/C (endpoint: mean survival time, dose: 50.0 mg/kg/injection, schedule: Q01DX001 (ip), vehicle: carboxymethylcellulose (CMC)): 93 % of control | T/C (endpoint: mean survival time, dose: 100.0 mg/kg/injection, schedule: Q01DX001 (ip), vehicle: carboxymethylcellulose (CMC)): 108 % of control | T/C (endpoint: mean survival time, dose: 200.0 mg/kg/injection, schedule: Q01DX001 (ip), vehicle: carboxymethylcellulose (CMC)): 91 % of control

OC1CCCCC12CC2 (configuration not stated)
T/C [4]: 102 % of control | T/C [5]: 104 % of control | T/C [6]: 113 % of control

CN(C)/N=C\c1ccc([N+](C)(C)C)cc1
T/C (endpoint: mean survival time, dose: 12.5 mg/kg/injection, schedule: Q04DX003 (ip), vehicle: Klucel (hydroxypropylcellulose) (HPC)): 103 % of control | T/C (endpoint: mean survival time, dose: 25.0 mg/kg/injection, schedule: Q04DX003 (ip), vehicle: Klucel (hydroxypropylcellulose) (HPC)): 109 % of control | T/C (endpoint: mean survival time, dose: 50.0 mg/kg/injection, schedule: Q04DX003 (ip), vehicle: Klucel (hydroxypropylcellulose) (HPC)): 106 % of control

CCCCCCCCCCCCCCCc1cc(=O)n(-c2ccc(C(=O)OCC)cc2)n1C
T/C [7]: 92 % of control | T/C [4]: 97 % of control | T/C [8]: 86 % of control | T/C [5]: 88 % of control | T/C [6]: 100 % of control

COc1ccc(N=C(c2ccccc2)c2ccccc2)cc1
T/C [7]: 95 % of control | T/C (endpoint: mean survival time, dose: 100.0 mg/kg/injection, schedule: Q04DX003 (ip), vehicle: saline): 89 % of control | T/C [8]: 97 % of control | T/C (endpoint: mean survival time, dose: 200.0 mg/kg/injection, schedule: Q04DX003 (ip), vehicle: saline): 101 % of control | T/C [9]: 91 % of control | T/C (endpoint: mean survival time, dose: 400.0 mg/kg/injection, schedule: Q04DX003 (ip), vehicle: saline): 101 % of control

CC(=O)C(C(C)=O)C(c1ccccc1Cl)C(C(C)=O)C(C)=O
T/C [7]: 98 % of control | T/C [8]: 102 % of control | T/C [9]: 95 % of control

CCOP(=S)(N1CC1)N1CC1
T/C (endpoint: mean survival time, dose: 100.0 mg/kg/injection, schedule: Q01DX009 (ip), vehicle: other): 94 % of control | T/C (endpoint: mean survival time, dose: 200.0 mg/kg/injection, schedule: Q01DX009 (ip), vehicle: other): 100 % of control | T/C (endpoint: mean survival time, dose: 400.0 mg/kg/injection, schedule: Q01DX009 (ip), vehicle: other): 90 % of control

CO[C@@]12[C@@H]3N[C@@H]3CN1C1=C(C(=O)C(NCCN3CCCC3)=C(C)C1=O)[C@@H]2COC(N)=O
T/C (endpoint: mean survival time, dose: 0.31 mg/kg/injection, schedule: Q01DX005 (ip), vehicle: water): 101 % of control | T/C (endpoint: mean survival time, dose: 0.62 mg/kg/injection, schedule: Q01DX005 (ip), vehicle: water): 101 % of control | T/C (endpoint: mean survival time, dose: 1.25 mg/kg/injection, schedule: Q01DX005 (ip), vehicle: water): 113 % of control | T/C (endpoint: mean survival time, dose: 1.5 mg/kg/injection, schedule: Q01DX001 (ip), vehicle: water): 100 % of control | T/C (endpoint: mean survival time, dose: 2.5 mg/kg/injection, schedule: Q01DX005 (ip), vehicle: water): 120 % of control and 122 % of control | T/C (endpoint: mean survival time, dose: 3.0 mg/kg/injection, schedule: Q01DX001 (ip), vehicle: water): 94 % of control | T/C (endpoint: mean survival time, dose: 6.0 mg/kg/injection, schedule: Q01DX001 (ip), vehicle: water): 115 % of control | T/C (endpoint: mean survival time, dose: 12.0 mg/kg/injection, schedule: Q01DX001 (ip), vehicle: water): 103 % of control

COc1ccc(O)c(C=O)c1
T/C [4]: 100 % of control | T/C [5]: 110 % of control | T/C [6]: 95 % of control

NP(=O)(OCCCCOCc1ccccc1)N(CCCl)CCCl (configuration not stated)
T/C (endpoint: mean survival time, dose: 25.0 mg/kg/injection, schedule: Q01DX001 (ip), vehicle: other): 98 % of control | T/C (endpoint: mean survival time, dose: 50.0 mg/kg/injection, schedule: Q01DX001 (ip), vehicle: other): 101 % of control | T/C (endpoint: mean survival time, dose: 100.0 mg/kg/injection, schedule: Q01DX001 (ip), vehicle: other): 101 % of control | T/C (endpoint: mean survival time, dose: 200.0 mg/kg/injection, schedule: Q01DX001 (ip), vehicle: other): 90 % of control | T/C (endpoint: mean survival time, dose: 400.0 mg/kg/injection, schedule: Q01DX001 (ip), vehicle: other): 95 % of control

O=C(O)CC(NCc1ccccc1)C(=O)O (configuration not stated)
T/C [4]: 103 % of control | T/C [5]: 100 % of control | T/C [6]: 97 % of control

[Cl][Pt+2]([Cl])([Cl])[Cl].[NH-]CC1(C[NH-])CCCC1
T/C (endpoint: median survival time, dose: 3.12 mg/kg/injection, schedule: Q04DX003 (ip), vehicle: saline): 171 % of control and 174 % of control | T/C [1]: 174 % of control and 217 % of control | T/C [2]: 280 % of control and 109 % of control | T/C [3]: 174 % of control

CCC(=O)c1cc([N+](=O)[O-])ccc1NC(C)=O
T/C [4]: 100 % of control | T/C [5]: 94 % of control | T/C [6]: 88 % of control

O=C(c1ccccc1)N(CCCCl)C(=O)N(CCCCl)C(=O)c1ccccc1
T/C [4]: 105 % of control | T/C [5]: 100 % of control | T/C [6]: 108 % of control

COc1ccc2cc3[n+](cc2c1OC)CCc1cc2c(cc1-3)OCO2
T/C (endpoint: mean survival time, dose: 5.0 mg/kg/injection, schedule: Q01DX009 (ip), vehicle: saline with Tween-80): 106 % of control | T/C (endpoint: mean survival time, dose: 5.0 mg/kg/injection, schedule: Q04DX003 (ip), vehicle: saline with Tween-80): 98 % of control | T/C (endpoint: mean survival time, dose: 10.0 mg/kg/injection, schedule: Q01DX009 (ip), vehicle: saline with Tween-80): 93 % of control | T/C (endpoint: mean survival time, dose: 10.0 mg/kg/injection, schedule: Q04DX003 (ip), vehicle: saline with Tween-80): 96 % of control | T/C (endpoint: mean survival time, dose: 20.0 mg/kg/injection, schedule: Q04DX003 (ip), vehicle: saline with Tween-80): 94 % of control

CCCCSc1cc(C)nc2ccccc12
T/C (endpoint: mean survival time, dose: 100.0 mg/kg/injection, schedule: Q04DX002 (ip), vehicle: saline with Tween-80): 96 % of control

— PubChem BioAssay AID256 (DTP/NCI, 2004)
